Read-outs that look alike come from different tables or passages of the source.
Tests used:
[1] = system: C. pneumoniae K7 strain (clinical isolate); assay: Direct anti-chlamydial effect (inhibition of formation of inclusions), HL host cells; assay type: cell-based; conditions: for inhibition at 0.5 µM / inhibition at 50 µM: Chlamydia pneumoniae, read-out: Inhibition % of the DMSO control (pre-treated)
[2] = system: C. pneumoniae K7 strain (clinical isolate); assay: as above; assay type: cell-based; conditions: for Inhibition of the growth of C. pneumoniae (in words): concentration of 0.5-50 μg; for inhibition at 0.5 µM / inhibition at 50 µM: Chlamydia pneumoniae, read-out: Inhibition % of the DMSO control
Excerpt: The Direct Anti-Chlamydial Effect of Plant-Derived Phenolic Compounds (As Inhibition of Formation of Inclusions)/C. pneumoniae K7 Strain (Clinical Isolate)
(§1) The cultivated HL cells are infected with C. pneumoniae EB's. The EB's which have invaded the cell are changed into the metabolically active reticulate body (RB) which are dividing by binary fission in the endosome vacuole or inclusion.
(§2) After a certain time (about 72 hr) the C. pneumoniae RB's are condensing back into EB's, after which the inclusions are broken, the host cells are broken and the EB's are liberated. In this method the intention is to verify the inclusions before the breaking up of the host cells.
(§3) As the host cell of C. pneumoniae in in vitro conditions HL cells are used. As the host cells of C. trachomatis in in vitro conditions McCoy cells often are used.
(§4) On the day preceding the infection the host cells are inoculated on a 24-well plate: the cells are harvested by trypsinisation, they are suspended in ca. 5 ml of the nutrition liquid and counted in a Burker's chamber. Each well are seeded using a concentration of 250000-400000 cells/well for cultivation. Before the addition of the cells to the well is if necessary round cover glass (diameter 13 mm) put for staining. Nutrition liquid is added so that the volume is 1 ml/well. On the following day the cells are infected with the desired bacterium.
(§5) Solution to be used in the infection and containing chlamydiae particles is mixed throughout. The old nutrition liquid is aspirated away. By the infection the inoculum which has been stored at −70° C. is diluted to an IFU concentration of ca. 10^3 so that the volume of the solution is at least 200 μl/well on a 24-well plate. The cells are infected by centrifuging at 1600 rpm (550×g)/1 hr. The nutrition medium is aspirated away and changed to a maintenance medium containing cyclohexamide and also containing the studied compound (DMSO concentration 0.2%), 1 ml/well. The cells are incubated in a 5% CO2 atmosphere at +35° C. The cells infected with C. pneumoniae are incubated for 3 days. After 2-3 days the maintenance medium is removed and the cells washed with 1×1 ml of PBS. To the wells 200 μl of SPG are added for further infection, harvested with a pipette tip and transferred into tubes. This is used for infecting new cells in the same way as above to test the inhibition of infectivity (chlamydiasidic effect).
(§6) The nutrition medium, which is above the cover glass left for staining, is aspirated away. The infected cells are fixed on the cover glass with methanol for 10 min. The cover glass is removed from the well and -transferred onto a suitable fluorescein-conjugated monoclonal antibody on Parafilm in a moist chamber with the cell-containing side down. The cover glass is incubated for 30 min at +37° C. and washed twice with PBS and once with water. Finally it is dried. The cover glass is put with the cell-containing side down on an object glass containing a fixative (e.g. Mounting medium). When viewed under the fluorescent microscope, cell culture specimens infacted with chlamydiae show a characteristic apple-green fluorescence of inclusions against a red counterstained background.

HL cells = assay: Toxicity towards the host cells, Trypan blue staining, no infection; assay type: cell-based, human
Description: The determination was performed as in the previous tests but without any infection. The viability was determined with Trypan blue staining.

C. pneumoniae [3] = assay: Direct anti-chlamydial effect of compounds and mixtures on C. pneumoniae (Example 5); assay type: cell-based; conditions: 50 μM; for inhibition at 50 µM: Chlamydia pneumoniae, read-out: Inhibition %
Description: Direct Anti-Chlamydial Effect of Plant-Derived Phenolic Compounds, Certain Synthetic Compounds and Mixtures on C. pneumoniae
The concentration used was 50 μM.
as §1, §2, §4, §5, §6

[4] = Antioxidant effect, IC50 against DPPH; assay type: biochemical; conditions: read-out: IC50 [moles L^−1] against DPPH′
Excerpt: (§7) In the following Table I some of the preferred plant-derived phenolic compounds according to the present invention, the effect of the compounds on the calcium influx to the cell, the antioxidant effect as well as the chemical structure of the compounds are presented.

C. pneumoniae [5] = assay: Inhibition of the infectivity (chlamydiasidic effect), re-infection of new cells; assay type: cell-based; conditions: for inhibition at 0.5 µM / inhibition at 50 µM: Chlamydia pneumoniae
Description: Inhibition of the Infectivity/C. pneumoniae
as §5, §6

Ca^2+ intake in the cell = assay: Effect of the compounds on the calcium influx (Ca2+ intake) to the cell; assay type: cell-based; conditions: compound 20 μg/ml; − = decrease, + = increase
Excerpt: as §7

C. trachomatis = assay: Direct anti-chlamydial effect on C. trachomatis, cultivation in McCoy cells; assay type: cell-based; conditions: for Effect on C. trachomatis (in words): pretreated host cells; for inhibition at 0.5 µM / inhibition at 50 µM: Chlamydia trachomatis
Description: C. trachomatis, cultivation in McCoy cells. The test procedure otherwise the same as with C. pneumoniae.
as §3, §4, §5, §6

[6] = 0.5 μM, host cells incubated 1 day with compound before infection
[7] = 50 μM, host cells incubated 1 day with compound before infection
[8] = 0.5 μM, formation of inclusions
[9] = 0.5 μM, host cells pre-treated 1 day
[10] = 50 μM, host cells pre-treated 1 day
[11] = 0.5 μM, McCoy cells pre-treated 1 day
[12] = 50 μM, McCoy cells pre-treated 1 day
[13] = 0.5 μM, host cells pre-treated 1 day, read-out: Inhibition % of the DMSO control (pre-treated)
[14] = 0.5 μM, read-out: Inhibition % of the DMSO control
[15] = 50 μM, host cells pre-treated 1 day, read-out: Inhibition % of the DMSO control (pre-treated)
[16] = 50 μM, read-out: Inhibition % of the DMSO control
[17] = 0.5 μM, McCoy cells pre-treated 1 day, read-out: Inhibition % of the DMSO control (pre-treated)
[18] = 0.5 μM, McCoy cells, read-out: Inhibition % of the DMSO control
[19] = 50 μM, McCoy cells pre-treated 1 day, read-out: Inhibition % of the DMSO control (pre-treated)
[20] = 50 μM, McCoy cells, read-out: Inhibition % of the DMSO control

Row | SMILES | Inhibition % of the DMSO control (pre-treated) [1, 6] [%] | Inhibition % of the DMSO control (pre-treated) [1, 7] [%] | Inhibition % of the DMSO control [2, 8] [%] | Inhibition of the growth of C. pneumoniae (in words) [2] | Toxicity test HL-C (HL cells; 0.005 μM) [%] | Toxicity test HL-C (pre-treated) (HL cells; 0.005 μM) [%] | Toxicity test HL-C (HL cells; 0.05 μM) [%] | Toxicity test HL-C (pre-treated) (HL cells; 0.05 μM) [%] | Toxicity test HL-C (HL cells; 0.5 μM) [%] | Toxicity test HL-C (pre-treated) (HL cells; 0.5 μM) [%] | Toxicity test HL-C (HL cells; 5 μM) [%] | Toxicity test HL-C (pre-treated) (HL cells; 5 μM) [%] | Toxicity test HL-C (HL cells; 50 μM) [%] | Toxicity test HL-C (pre-treated) (HL cells; 50 μM) [%] | Inhibition % (C. pneumoniae [3]) [%] | IC50 [4] [µM] | Effect on Ca^2+ intake [%] (Ca^2+ intake in the cell) | Effect on C. trachomatis (in words) (C. trachomatis) | inhibition at 50 µM (C. pneumoniae [3]) [%] | inhibition at 20 µg/mL (Ca^2+ intake in the cell) [%] | also measured
1 | O=c1c(O)c(-c2ccc(O)cc2O)oc2cc(O)cc(O)c12 [Morin] | 62 | 96 | 80 | inhibited the growth | 8.3 | 14.4 | 9.0 | 8.1 | 8.4 | 6.4 | 8.3 | 12.7 | 11.2 | 9.7 | 100 | 23.9 | +48.0% | particularly effective |  |  | Inhibition % of the DMSO control ([2]; 50 μM, formation of inclusions): 99%; Inhibition % of the DMSO control (C. pneumoniae [5]; 0.5 μM): 81%; Inhibition % of the DMSO control (pre-treated) (C. pneumoniae [5]; [9]): 53%; Inhibition % of the DMSO control (C. pneumoniae [5]; 50 μM): 94%; Inhibition % of the DMSO control (pre-treated) (C. pneumoniae [5]; [10]): 76%; Inhibition % of the DMSO control (C. trachomatis; 0.5 μM, McCoy cells): 0%; Inhibition % of the DMSO control (pre-treated) (C. trachomatis; [11]): 100%; Inhibition % of the DMSO control (C. trachomatis; 50 μM, McCoy cells): 0%; Inhibition % of the DMSO control (pre-treated) (C. trachomatis; [12]): 100%
2 | CCCCCCCCOC(=O)c1cc(O)c(O)c(O)c1 [Octyl gallate] |  |  |  | inhibited the growth | 8.0 | 7.0 | 7.4 | 7.1 | 7.9 | 5.0 | 8.8 | 8.5 | 16.4 | 14.8 |  | 17 |  |  | 100 | 92.2 | inhibition at 0.5 µM [1]: 62%; inhibition at 50 µM [1]: 100%; inhibition at 0.5 µM [2]: 82%; inhibition at 50 µM [2]: 100%; inhibition at 0.5 µM (C. pneumoniae [5]; [13]): 42%; inhibition at 0.5 µM (C. pneumoniae [5]; [14]): 59%; inhibition at 50 µM (C. pneumoniae [5]; [15]): 100%; inhibition at 50 µM (C. pneumoniae [5]; [16]): 100%; inhibition at 0.5 µM (C. trachomatis; [17]): 0%; inhibition at 0.5 µM (C. trachomatis; [18]): 0%; inhibition at 50 µM (C. trachomatis; [19]): 88%; inhibition at 50 µM (C. trachomatis; [20]): 14%
3 | O=c1c(O)c(-c2ccc(O)c(O)c2)oc2cc(O)cc(O)c12 [Quercetin] |  |  |  | inhibited the growth | 7.4 | 7.9 | 11.7 | 7.2 | 7.0 | 3.3 | 9.2 | 8.1 | 10.5 | 10.5 |  | 10.7 |  | particularly effective | 90 | -54.1 | inhibition at 0.5 µM [1, 6]: 77%; inhibition at 50 µM [1, 7]: 90%; inhibition at 0.5 µM [2, 8]: 68%; inhibition at 50 µM ([2]; 50 μM, formation of inclusions): 90%; inhibition at 0.5 µM (C. pneumoniae [5]; [13]): 0%; inhibition at 0.5 µM (C. pneumoniae [5]; [14]): 58%; inhibition at 50 µM (C. pneumoniae [5]; [15]): 0%; inhibition at 50 µM (C. pneumoniae [5]; [16]): 76%; inhibition at 0.5 µM (C. trachomatis; [17]): 20%; inhibition at 0.5 µM (C. trachomatis; [18]): 0%; inhibition at 50 µM (C. trachomatis; [19]): 100%; inhibition at 50 µM (C. trachomatis; [20]): 0%
4 | COc1cc(O)c2c(=O)c(O)c(-c3ccc(O)c(O)c3)oc2c1 [Rhamnetin] | 50 | 59 | 73 | inhibited the growth | 10.9 | 6.6 | 9.5 | 7.6 | 10.0 | 10.6 | 9.6 | 8.0 | 15.7 | 16.9 | 100 | 12.1 | +6.63% | particularly effective |  |  | Inhibition % of the DMSO control ([2]; 50 μM, formation of inclusions): 99%; Inhibition % of the DMSO control (C. pneumoniae [5]; 0.5 μM): 100%; Inhibition % of the DMSO control (pre-treated) (C. pneumoniae [5]; [9]): 75%; Inhibition % of the DMSO control (C. pneumoniae [5]; 50 μM): 100%; Inhibition % of the DMSO control (pre-treated) (C. pneumoniae [5]; [10]): 67%; Inhibition % of the DMSO control (C. trachomatis; 0.5 μM, McCoy cells): 0%; Inhibition % of the DMSO control (pre-treated) (C. trachomatis; [11]): 17%; Inhibition % of the DMSO control (C. trachomatis; 50 μM, McCoy cells): 0%; Inhibition % of the DMSO control (pre-treated) (C. trachomatis; [12]): 100%
5 | C[C@@H]1O[C@@H](OC[C@H]2O[C@@H](Oc3c(-c4ccc(O)c(O)c4)oc4cc(O)cc(O)c4c3=O)[C@H](O)[C@@H](O)[C@@H]2O)[C@H](O)[C@H](O)[C@H]1O [Rutin] |  |  |  |  |  |  |  |  |  |  |  |  |  |  | 46 | 10.2 | −3.88% |  |  |  | 
6 | COc1cc(C(=O)O)cc(OC)c1O [Syringic acid] |  |  |  |  |  |  |  |  |  |  |  |  |  |  |  | 32.6 |  |  | 32 | 10.9 | 

Reference: US20040058983A1, “Plan-derived and synthetic phenolic compounds and plant extracts, effective in the treatment and prevention of chlamydial infections” (priority 2000, published 2004)
